Common to all, as to experiment: NCI-60 cell line screen, 48 h
In test [1] the test system is DU-145 prostate.
In test [2] the test system is HCC-2998 colon.
Test [3] has as its system M14 melanoma.
In test [4] the test system is MDA-N.
Test [5] has as its system OVCAR-3 ovarian.
For test [6], the system named is OVCAR-5 ovarian.
The subject of test [7] is SK-MEL-2 melanoma.
Test [8] has as its system SK-OV-3 ovarian.
Test [9] concerns SN12C renal.

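Cells were grown in 96-well plates and exposed to each compound for 48 hours at five concentrations; endpoints were interpolated linearly between bracketing concentrations, or set to the highest concentration if not reached. TGI: total growth inhibition.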

The values below come from PubChem BioAssay (NCI).

Regarding `COc1c2occc2c(OC)c2c(=O)c(S(=O)(=O)NC(=O)Nc3ccc(Cl)cc3)coc12`, the TGI in [1], in test [2], in [3], in test [4], in test [5] and in test [6] was over 10 µM each time. Besides, the TGI in test [7], in test [8] and in test [9] was over 10 µM in each case.
As for `CCCC1NC(C#N)(C#N)C(CCC)NC1(C#N)C#N` (stereo unspecified), the TGI is over 43.1 µM in [1]; over 58.2 µM in test [2]; over 60.6 µM in [3]; over 55 µM in test [4]; 29.1 µM in test [5]; over 90.1 µM in test [6]. In addition, the values for the TGI in test [7], in test [8] and in test [9] were over 100 µM, over 100 µM and over 37 µM, respectively.
Consider `N/C(=N\N=C\c1ccc2c(c1)OCO2)NO`, for which the TGI in test [1] was 99 µM; in [2], over 100 µM; in [3] it was 32.5 µM; in test [4], over 100 µM; in test [5], 59.1 µM; in test [6], over 100 µM. In addition, the values for the TGI in test [7], in test [8] and in [9] were 61.1 µM, over 100 µM and over 100 µM, respectively.
On to `Nn1c(Cc2ccc(Cl)cc2)n[nH]c1=O`, for which the TGI in [1], in [2], in test [3], in test [4], in [5] and in [6] was over 100 µM each time. In addition, the TGI in test [7], in test [8] and in test [9] was over 100 µM throughout.
In the case of `CC1(C)C2CCC1(CS(=O)(=O)Nc1ccccc1)C(=O)C2` (stereo unspecified), the TGI in [1], in test [2], in [3], in test [4], in [5] and in [6] was over 100 µM in each case. For the same molecule, the TGI in [7], in test [8] and in test [9] was over 100 µM in each case.
In the case of `CCNC(=S)N/N=C/c1cc(OC)ccc1O`, the TGI in [1], in [2], in test [3], in test [4], in test [5] and in test [6] was over 100 µM throughout. For the same molecule, the TGI in test [7], in test [8] and in [9] was over 100 µM throughout.
Consider `CCSSCS(C)(=O)=O`, for which the TGI in [1] is 50.5 µM; in test [2] it was 34.7 µM; in test [3] it was 55.3 µM; in test [4], over 100 µM; in [5] it was 99.2 µM; in test [6] it was over 100 µM. The TGI in [7] is over 100 µM; in test [8] it was over 100 µM; in test [9], 67.8 µM.
For the molecule `[O-][n+]1onc2c3nn(-c4ccccc4)nc3ccc21`, the TGI in test [1] was 57.8 µM; in test [2] it was 44.9 µM; in test [3], over 100 µM; in test [4] it was over 100 µM; in test [5], 72 µM; in [6] it was over 100 µM. In addition, the TGI in [7], in [8] and in test [9] was over 100 µM each time.
Take `COc1ccc2c(c1)OCC1(O)Cc3ccccc3OC21` (stereo unspecified): the TGI in test [1], in test [2], in test [3], in test [4], in test [5] and in [6] was over 100 µM throughout. In addition, the TGI in test [7], in test [8] and in test [9] was over 100 µM in each case.
Regarding `Cn1ccnc1CCc1ccc(F)cc1F`, the TGI in test [1], in test [2], in test [3], in test [4], in [5] and in test [6] was over 100 µM throughout. Further, the TGI in test [7], in test [8] and in test [9] was over 100 µM each time.
Take `CC(=O)N1N=C(c2c(O)ccc3ccccc23)CC1C(=O)c1ccco1` (stereo unspecified): the TGI in [1] was over 100 µM; in test [2], over 100 µM; in test [3], over 100 µM; in test [4], 76.9 µM; in test [5], 44 µM; in [6], over 100 µM. Moreover, the values for the TGI in [7], in test [8] and in test [9] were 43.1 µM, over 100 µM and over 100 µM, respectively.
For the molecule `CC/C(Cl)=N\OC(=O)Nc1ccc(OC)cc1`, the TGI in test [1] came to 31.3 µM; in [2], 15.7 µM; in test [3] it was 9.77 µM; in test [4], 11.3 µM; in [5], 10.7 µM; in [6] it was 11.3 µM. For the same molecule, the TGI in test [7] worked out at 33 µM; in [8], 31.7 µM; in [9] it was 11.4 µM.
Consider `O=C1NN=C(c2ccc(Cl)cc2)CC1C1C(=O)N(c2ccccc2)N=C1c1ccccc1` (stereo unspecified), for which the TGI is over 100 µM in [1]; 91.7 µM in test [2]; over 100 µM in [3]; over 100 µM in test [4]; 72.9 µM in test [5]; 80.7 µM in test [6]. In addition, the TGI is 78.7 µM in test [7], over 100 µM in test [8] and over 100 µM in [9].
Consider `O=C(O)Cc1ccc(Oc2nc3ccccc3nc2-c2cccs2)cc1`, for which the TGI in test [1], in [2], in test [3], in [4], in test [5] and in test [6] was over 100 µM throughout. Besides, the TGI in test [7], in test [8] and in [9] was over 100 µM throughout.
